# Key:
# [1] = system: PGE2; assay: PGE2 production by NHEKs in the inflammatory state (PMA), ELISA; format: cell-based, human; conditions: PMA 10 ng/ml 24 h, compounds 50 μM, indomethacin 10 μg/ml, relative to PMA induced control (100%)
# Procedure: (§1) The study was carried out on Normal Human Epidermal Keratinocytes (NHEKs) (Lonza, CC-2507, origin: foreskin) in monolayer culture in Epilife medium (Invitrogen, M-EPI-500-A) containing the components of the Human Keratinocyte Growth Supplement (HKGS) mixture (Invitrogen, S-001-K) added separately, except hydrocortisone having anti-inflammatory properties.
# For the quantification of IL-8 and PGE2, the inflammatory state of the NHEKs in culture was induced by treatment with PMA (phorbol myristate acetate/10 ng/ml/H2O) for 24 h. Induction of IL-6 was achieved by treatment with PMA (10 ng/ml/H2O) combined with calcium ionophore A23187 (2 μM/DMSO) in medium containing calcium at a concentration of 0.8 mM. TNF-α secretion was induced by a combination of PMA (10 ng/ml/H2O) and calcium ionophore A23187 (2 μM/DMSO) applied for 24 h (TNF-α) in medium containing 0.06 mM calcium. The reference molecules used are dexamethasone (10 μM/H2O) and indomethacin (10 μg/ml/ethanol).
# The effect of the compounds was studied by applying them to the keratinocyte culture medium 2 h prior to induction of the inflammatory state as well as during induction (2 h for LTB4, 24 h for IL-8, PGE2, IL-6 and TNF-α).
# Each condition was carried out in triplicate cultures and the supernatants were recovered at the end of the various treatments.
# (§2) Quantification of the various inflammatory mediators was carried out with specific kits, based on a standard curve, according to the instructions provided by the kits' suppliers, R&D Systems and Cayman Chemical.
# (§3) Before induction of the inflammatory state, the NHEKs were treated with the compounds and reference molecules for 2 h. The inflammatory state was then induced according to the conditions described in the methodology section, the culture supernatants were collected, and the various inflammatory mediators were quantified by the ELISA technique.
# The effect of the compounds on PGE2 production is presented in FIG. 5 and is expressed as a percentage of the PMA treatment set at 100%.
# [2] = system: Normal Human Epidermal Keratinocytes (NHEKs); assay: Microscopic observation of NHEK cell survival 48 h after inflammatory treatment; format: cell-based
# Procedure: The cells, treated and not treated by the compounds to be tested, were observed under an optical microscope 48 h after the following inflammatory treatment: 10 ng/mL PMA/H2O+2 μM calcium ionophore A23187/DMSO.
# NHEKs were brought into contact or not with the compounds to be tested. After 2 h, the cells underwent or not an inflammation treatment (10 ng/mL PMA/H2O+2 μM calcium ionophore A23187/DMSO).
# The cells were observed under an optical microscope 48 h after the inflammatory treatment.
# [3] = system: TNF-α; assay: TNF-α production by NHEKs in the inflammatory state (PMA + calcium ionophore, 0.06 mM Ca2+), ELISA; format: cell-based, human; conditions: PMA + calcium ionophore A23187 24 h, compounds 50 μM, dexamethasone 10 μM, relative to induced control
# Procedure: as §1
# For the quantification of IL-8 and PGE2, the inflammatory state of the NHEKs in culture was induced by treatment with PMA (phorbol myristate acetate/10 ng/ml/H2O) for 24 h. Induction of IL-6 was achieved by treatment with PMA (10 ng/ml/H2O) combined with calcium ionophore A23187 (2 μM/DMSO) in medium containing calcium at a concentration of 0.8 mM. […]
# as §2
# as §3, with “technique. […]” for “technique.”
structure (smiles),measurement,setting,value
"CCCCCCCCNC(=O)[C@]1(O)C[C@@H](OC(=O)/C=C/c2ccc(O)c(O)c2)[C@@H](O)[C@H](OC(=O)/C=C/c2ccc(O)c(O)c2)C1 [PAT1657, (2E,2′E)-((1R,2S,3R,5S)-2,5-dihydroxy-5-(octylcarbamoyl)cyclohexane-1,3-diyl) bis(3-(3,4-dihydroxyphenyl)acrylate)]",PGE2 production,[1],very highly significantly decrease
same,Result at 48 h: cell survival,"[2]; NHEK cultures 48 h after inflammatory treatment (10 ng/mL PMA + 2 μM calcium ionophore A23187), microscopic observation",Confluent culture: 100%
same,effect on cell survival / cellular protection against inflammation,"[2]; NHEK cultures 48 h after inflammatory treatment, summary in words",strong cellular protection against inflammation
same,TNF-α production,[3],most marked effects and are more effective than dexamethasone itself

# Source: US10786690B2, “Amide derivatives of polycaffeoylquinic acids, process for producing same and uses thereof” (TEMISIS, priority 2016, dated 2020)
